Columns and labels:
Cats = test: Unanesthetized Cat (minimum symptoms, usually ataxia); format: in vivo; settings: Felis catus, po, cats treated orally
Description: Cats are treated orally and observed for minimum symptoms--usually ataxia. One cat is used at a dose of 50 mg/kg. If activity is present, up to three cats/dose are used. Results are given as minimum effective dose.

mice = test: Footshock (blocking of shock-elicited fighting in pairs of mice); format: in vivo; settings: Mus musculus, pretreated 1 hour, 3 out of 3 pairs blocked from fighting, maximum of 100 mg/kg, read-out: Footshock (100% blocking dose)
Description: A pair of mice is confined under a one liter beaker placed on a grid which presents shock to the feet. At least 5 fighting episodes are elicited in a two-minute period. Pairs of mice are marked and pretreated 1 hour to a second shocking. Logarithmic dose intervals are utilized up to a maximum of 100 mg/kg. At the 100% blocking dose, 3 out of 3 pairs must be blocked from fighting.

male mice = test: Inclined Screen (paralyzing effects, sliding off the screen); format: in vivo; settings: Mus musculus, groups of 6, at least 4 hours, maximum dose of 500 mg/kg, read-out: Inclined Screen (PD50)
Description: Groups of 6 male mice are given the test drug (maximum dose of 500 mg/kg) and then are left on the inclined screen at least 4 hours for observation of paralyzing effects severe enough to cause them to slide off the screen. If activity is observed, additional doses are taken until at least two are reached at which some, but not all of the animals slide off the screen. Doses at which mice fall off the screen due to toxicity or excitation are not included in the calculation of PD50.

Toxicity (LD50) (PO) = settings: in vivo

SMILES: Fc1ccccc1C1=NCc2n[nH]cc2-c2ccc(Cl)cc21 [8-Chloro-6-(2-fluorophenyl)-2H,4H-pyrazolo[3,4-d][2]benzazepine]
- minimal effective dose (Cats): 2 mg/kg
- ED100 (mice): 25 mg/kg
- ED50 (male mice): 66 mg/kg
- LD50 (Toxicity (LD50) (PO)): 760 mg/kg

SMILES: Cc1[nH]nc2c1-c1ccc([N+](=O)[O-])cc1C(c1ccccc1Cl)=NC2 [6-(2-Chlorophenyl)-3-methyl-8-nitro-2H,4H-pyrazolo[3,4-d][2]benzazepine]
- minimal effective dose (Cats): 250 mg/kg
- ED50 (male mice): 400 mg/kg
- LD50 (Toxicity (LD50) (PO)): > 1000 mg/kg

SMILES: OCCn1cc2c(n1)CN=C(c1ccccc1)c1cc(Cl)ccc1-2 [8-Chloro-2-(2-hydroxyethyl)-6-phenyl-2H,4H-pyrazolo[3,4-d][2]benzazepine]
- minimal effective dose (Cats): 20 mg/kg
- ED100 (mice): 100 mg/kg
- ED50 (male mice): 40 mg/kg
- LD50 (Toxicity (LD50) (PO)): 750 mg/kg

SMILES: Clc1ccc2c(c1)C(c1ccccc1Cl)=NCc1n[nH]cc1-2 [8-Chloro-6-(2-chlorophenyl)-2H,4H-pyrazolo[3,4-d][2]benzazepine]
- minimal effective dose (Cats): 10 mg/kg
- ED100 (mice): 25 mg/kg
- ED50 (male mice): 143 mg/kg
- LD50 (Toxicity (LD50) (PO)): 800 mg/kg

SMILES: CNC(=O)n1cc2c(n1)CN=C(c1ccccc1)c1cc(Cl)ccc1-2 [8-Chloro-N-methyl-6-phenyl-2H,4H-pyrazolo[3,4-d][2]benzazepine-2-carboxamide]
- minimal effective dose (Cats): 20 mg/kg
- ED100 (mice): 25 mg/kg
- ED50 (male mice): 400 mg/kg

Reference: patent US4460781A, “4-(2-Benzoylphenyl-1-pyazole and 4-(2-benzoylphenyl)-1-pyrazoline derivatives” (Hoffmann-La Roche Inc., priority 1983, dated 1984)
